According to patent publication US20160060260A1, “BROMODOMAIN INHIBITORS FOR TREATING DISEASE” (Board of Regents, The University of Texas System, priority 2014, published 2016):

Molecular target: T1, Recombinant human His-tagged Trim24-PHD-bromodomain (Homo sapiens, UniProt O15164)
T1 construct: Recombinant human His-tagged Trim24-PHD-bromodomain (produced in-house); made in house
T1 sequence (O15164 824-1006 limits assumed): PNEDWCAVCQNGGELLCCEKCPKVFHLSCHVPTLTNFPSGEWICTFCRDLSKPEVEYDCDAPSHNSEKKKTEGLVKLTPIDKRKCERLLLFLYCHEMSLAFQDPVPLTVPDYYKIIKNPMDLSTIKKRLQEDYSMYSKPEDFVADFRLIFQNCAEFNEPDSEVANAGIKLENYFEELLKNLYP
Assay: Trim24 AlphaScreen Assay
Assay type: binding
Details: 5 nM Trim24 protein, 15 nM biotinylated H3K23ac (1-33aa) peptide
Method: Recombinant human His-tagged Trim24-PHD-bromodomain (produced in-house), biotinylated H3K23ac (1-33aa) peptide (AnaSpec, Inc.), and test compound were added to a 384-well OptiPlate (Perkin Elmer) and incubated at room temperature for one hour. The assay buffer consisted of 50 mM Hepes, pH 7.5, 100 mM NaCl, and 0.12 mM Triton X-100.
Streptavidin donor beads and nickel chelate acceptor beads, both from a Perkin Elmer AlphaScreen Histidine Detection Kit, were then added to the Optiplate to a final concentration of 10 ug/mL each. Following a 2 hour incubation at room temperature, the microplate was read on an Envision Plate Reader (Perkin Elmer). Percent of control (POC) values were calculated from the following formula:
POC=[sample signal-average background signal]/[average maximum signal−average background signal]*100
The average maximum signal was obtained from wells containing all assay components except test compound. The average background signal pertained to wells with all assay components except Trim24 and test compound. IC50 values were calculated using a four-parameter logistic curve fit.

Row | IC50 [nM] | SMILES
1 | 10 to 100 | CCCOc1cc(OCCCCCCO)cc(Oc2cc3c(cc2NS(=O)(=O)c2cn(C)cn2)n(C)c(=O)n3C)c1 [Example 181, N-(6-(3-((6-hydroxyhexyl)oxy)-5-propoxyphenoxy)-1,3-dimethyl-2-oxo-2,3-dihydro-1H-benzo[d]imidazol-5-yl)-1-methyl-1H-imidazole-4-sulfonamide]
2 | > 1000 | CCCOc1cccc(Oc2cc3c(cc2NS(=O)(=O)c2cn(C)cn2)n(C)c(=O)n3C)c1Cl [Example 111, N-(6-(2-chloro-3-propoxyphenoxy)-1,3-dimethyl-2-oxo-2,3-dihydro-1H-benzo[d]imidazol-5-yl)-1-methyl-1H-imidazole-4-sulfonamide]
3 | 10 to 100 | CCCOc1cc(OCCCCCCN)cc(Oc2cc3c(cc2NS(=O)(=O)C2CC2)n(C)c(=O)n3C)c1 [Example 218, N-(6-(3-((6-aminohexyl)oxy)-5-propoxyphenoxy)-1,3-dimethyl-2-oxo-2,3-dihydro-1H-benzo[d]imidazol-5-yl)cyclopropanesulfonamide]
4 | 100 to 1000 | CCCOc1cc(Oc2cc3c(cc2NS(=O)(=O)c2cn(C)cn2)n(C)c(=O)n3C)ccc1Cl [Example 112, N-(6-(4-chloro-3-propoxyphenoxy)-1,3-dimethyl-2-oxo-2,3-dihydro-1H-benzo[d]imidazol-5-yl)-1-methyl-1H-imidazole-4-sulfonamide]
5 | 10 to 100 | CCCOc1cc(OCCCOC)cc(Oc2cc3c(cc2NS(=O)(=O)c2cn(CC(C)C)cn2)n(C)c(=O)n3C)c1 [Example 147, 1-isobutyl-N-(6-(3-(3-methoxypropoxy)-5-propoxyphenoxy)-1,3-dimethyl-2-oxo-2,3-dihydro-1H-benzo[d]imidazol-5-yl)-1H-imidazole-4-sulfonamide]
6 | 10 to 100 | CCCOc1cc(OCCCCCCN)cc(Oc2cc3c(cc2NS(=O)(=O)c2ccc(OC)c(OC)c2)n(C)c(=O)n3C)c1 [Example 7, N-(6-{3-[(6-aminohexyl)oxy]-5-propoxyphenoxy}-1,3-dimethyl-2-oxo-2,3-dihydro-1H-1,3-benzodiazol-5-yl)-3,4-dimethoxybenzene-1-sulfonamide]
7 | > 1000 | COc1ccc(S(=O)(=O)Nc2cc3c(cc2Oc2cccc(OCc4ccc(Cl)nc4)c2)n(C)c(=O)n3C)cc1OC [Example 20, N-(6-(3-((6-chloropyridin-3-yl)methoxy)phenoxy)-1,3-dimethyl-2-oxo-2,3-dihydro-1H-benzo[d]imidazol-5-yl)-3,4-dimethoxybenzenesulfonamide]
8 | 100 to 1000 | CCCOc1cccc(Oc2cc3c(cc2NS(=O)(=O)c2cccc(OC)c2)n(C)c(=O)n3C)c1 [Example 170, N-(1,3-dimethyl-2-oxo-6-(3-propoxyphenoxy)-2,3-dihydro-1H-benzo[d]imidazol-5-yl)-3-methoxybenzenesulfonamide]
9 | 10 to 100 | CCCOc1cc(OCCCC#N)cc(Oc2cc3c(cc2NS(=O)(=O)c2cn(C)c(C)n2)n(C)c(=O)n3C)c1 [Example 124, N-(6-(3-(3-cyanopropoxy)-5-propoxyphenoxy)-1,3-dimethyl-2-oxo-2,3-dihydro-1H-benzo[d]imidazol-5-yl)-1,2-dimethyl-1H-imidazole-4-sulfonamide]
10 | 10 to 100 | CCCOc1cc(OCCCOC)cc(Oc2cc3c(cc2NS(=O)(=O)c2cn(C)nc2C)n(C)c(=O)n3C)c1 [Example 206, N-(6-(3-(3-methoxypropoxy)-5-propoxyphenoxy)-1,3-dimethyl-2-oxo-2,3-dihydro-1H-benzo[d]imidazol-5-yl)-1,3-dimethyl-1H-pyrazole-4-sulfonamide]
11 | 10 to 100 | C=C(C)COc1cccc(Oc2cc3c(cc2NS(=O)(=O)c2cn(C)cn2)n(C)c(=O)n3C)c1 [Example 70, N-(1,3-dimethyl-6-(3-((2-methylallyl)oxy)phenoxy)-2-oxo-2,3-dihydro-H-benzo[d]imidazol-5-yl)-1-methyl-1H-imidazole-4-sulfonamide]

Row | SMILES | IC50 [nM]
12 | Cc1cc(OCC(C)C)cc(Oc2cc3c(cc2NS(=O)(=O)c2cn(C)cn2)n(C)c(=O)n3C)c1 [Example 222, N-(6-(3-isobutoxy-5-methylphenoxy)-1,3-dimethyl-2-oxo-2,3-dihydro-1H-benzo[d]imidazol-5-yl)-1-methyl-1H-imidazole-4-sulfonamide] | 10 to 100
